Experimental findings from the OPERA property sets (Mansouri et al. 2018) are described below.

≈ marks a conversion by molar mass, not a printed value.

For the first series the following is noted: 20 °C.
For the compound `COC[C@@H](N)C(=O)O` (racemic), the solubility (usually how much of the substance goes into solution per volume) was 4490 mM (≈ 535000 µg/mL).

The series is the same for the next values; noted with them: 21 °C.
For the compound `O=C(O)c1ccccc1C(=O)c1ccc(O)cc1`, the solubility amounted to 2.61 mM (≈ 632 µg/mL).

`O=C(O)c1cc(Br)ccc1Cl` yielded a solubility of 11.2 mM (≈ 2630 µg/mL).

Still in this series, the particulars now being: 22 °C.
Compound `O=C1CCCCCCCCCCCCCCCCCN1` registered a solubility of 1.42 mM (≈ 400 µg/mL).

The compound `Nc1c(Br)cc(Br)c(S(=O)(=O)O)c1Br` had a solubility of 324 mM (≈ 133000 µg/mL). In turn, `O=C1CCCCCCCCCN1` yielded a solubility of 13 mM (≈ 2200 µg/mL).

The same series, now with this note: 23 °C.
`CCCC(N)C(=O)O` (racemic) yielded a solubility of 805 mM (≈ 94300 µg/mL). Take `CC(C)C(=O)Oc1ccc([N+](=O)[O-])cc1`: the solubility came out at 0.11 mM (≈ 23 µg/mL). On the same count and under the same terms, next, `NC(=O)C[C@H](NC(N)=O)C(=O)O`: 308 mM (≈ 54000 µg/mL).

Staying with this series, now noted: 24 °C.
In turn, `O=C(O)c1ccc(C(=O)O)c(Br)c1` yielded a solubility of 7.35 mM (≈ 1800 µg/mL).

The series is the same for the next values; noted with them: 25 °C.
Compound `CC(=O)NC(=O)NC(C)=O` returned a solubility of 486 mM (≈ 70000 µg/mL). `CCC1(C)OC(=O)NC1=O` (centres undefined): the solubility was 1050 mM (≈ 150000 µg/mL). As for `CCCCCCCCCCOC(=O)c1cccnc1`, the solubility came to 0.646 mM (≈ 170 µg/mL). The same measure, in the same setting: next, `CN(C)c1cccc(S(=O)(=O)O)c1`: 1990 mM (≈ 400000 µg/mL).

For `CC(C)C1OC(=O)c2ccccc21` (centres undefined), the solubility came to 5.54 mM (≈ 976 µg/mL). The same measure, in the same setting: next, `CC(=O)OCC(C)OC(C)=O` (centres undefined): 624 mM (≈ 100000 µg/mL); `CC(C)[C@@H](O)C#N`: 2020 mM (≈ 200000 µg/mL); `Cc1nnc(N)nc1C`: 80.6 mM (≈ 10000 µg/mL). In turn, `O=C(O)c1c(O)ccc2ccccc12` returned a solubility of 0.744 mM (≈ 140 µg/mL). Same read-out and setting: next, `CC(C(=O)O)N(CCC#N)CCC#N` (centres undefined): 666 mM (≈ 130000 µg/mL). Still for that read-out and setting: with `Cc1ccc(/N=N/c2cc(C)ccc2N)cc1` the figure was 0.125 mM (≈ 28.2 µg/mL).

In the case of `CC(C)C[C@H](N)C(=O)N[C@H](CCC(N)=O)C(=O)O`, the solubility was 27 mM (≈ 7000 µg/mL). Still for that read-out and setting: next, `CCC(=NO)C(CC)=NO`: 2.8 mM (≈ 404 µg/mL). Same read-out and setting: with `CCC(CC)COC(=O)NS(N)(=O)=O` the figure was 17.8 mM (≈ 4000 µg/mL). As for `Oc1nc2ccccc2nc1O`, the solubility was determined as 1.54 mM (≈ 250 µg/mL). Take `NC(=O)NCC(=O)NCC(=O)O`: the solubility was 126 mM (≈ 22100 µg/mL). Still for that read-out and setting: with `Cc1cc(Cl)c(O)c(Cl)c1` the figure was 38 mM (≈ 6730 µg/mL). In the case of `COC(C)C(NC=O)C(=O)O` (racemic), the solubility came out at 242 mM (≈ 39000 µg/mL). On the same count and under the same terms, with `O=C(O)CNC(=S)SCC(=O)O` the figure was 50 mM (≈ 10500 µg/mL); with `CCCC(O)CC(C)C` (centres undefined), 12.4 mM (≈ 1610 µg/mL).

For `CCCCCN(N=Cc1ccc([N+](=O)[O-])o1)C(N)=O`, the solubility turned out to be 1.27 mM (≈ 340 µg/mL). As to `NS(=O)(=O)c1ccc(S(N)(=O)=O)cc1`, the solubility turned out to be 2.96 mM (≈ 700 µg/mL). Consider `O=C(O)CCC[Se][Se]CCCC(=O)O`, for which the solubility was determined as 5.66 mM (≈ 1880 µg/mL). On to `O=NN1CCCC1=O`, for which the solubility stood at 1130 mM (≈ 129000 µg/mL). Take `O=C(O)c1cccc2cccnc12`: the solubility came out at 18 mM (≈ 3120 µg/mL). `CCC1OC(=O)c2cc([N+](=O)[O-])ccc21` (centres undefined): the solubility was 2.82 mM (≈ 584 µg/mL).

`CC1CCCC(=NO)C1=NO` (centres undefined) yielded a solubility of 25.6 mM (≈ 4000 µg/mL).

As for `Cc1cc(C)c([PH](=O)O)c(C)c1`, the solubility was 1.62 mM (≈ 299 µg/mL). On to `CCCCCCCCCCNC(=O)C(C)O` (centres undefined), for which the solubility turned out to be 0.436 mM (≈ 100 µg/mL). Turning to `Cc1nc2c(c(=O)n(C)c(=O)n2C)n1C`, the solubility worked out at 35.5 mM (≈ 7400 µg/mL). Same read-out and setting: with `CCCCCCCCCCCNC(=O)c1cccnc1` the figure was 0.941 mM (≈ 260 µg/mL). Still for that read-out and setting: with `CCCOC(=O)c1cccnc1` the figure was 57.5 mM (≈ 9500 µg/mL). The same measure, in the same setting: next, `O=C1CC=CS1`: 599 mM (≈ 60000 µg/mL); `CCCCCCOC(=O)c1cccnc1`: 2.22 mM (≈ 460 µg/mL). Consider `Cc1cc(Cl)cc(C)c1O`, for which the solubility is 21.1 mM (≈ 3300 µg/mL).

`Nc1ccc(S(=O)(=O)c2ccc(Cl)cc2)cc1` came in with a solubility of 0.0747 mM (≈ 20 µg/mL). The same measure, in the same setting: with `CC1OC(=O)c2cc(N)ccc21` (centres undefined) the figure was 16.3 mM (≈ 2650 µg/mL); with `CC(=O)c1cc(O)c(O)c(O)c1`, 33.8 mM (≈ 5680 µg/mL); with `CCCS`, 25 mM (≈ 1900 µg/mL).

`CCCCOP(=O)(OCC)OCCCC`: the solubility stood at 14.3 mM (≈ 3400 µg/mL). Still for that read-out and setting: next, `CC1OC(=O)c2cc([N+](=O)[O-])ccc21` (centres undefined): 2.42 mM (≈ 468 µg/mL); `CCCCOC(=O)C(C)OC(=O)C(C)O` (centres undefined): 42.2 mM (≈ 9200 µg/mL); `Cc1cccc(Cl)c1O`: 168 mM (≈ 24000 µg/mL). The compound `CCCCCCC(C/C=C\CCCCCCCC(=O)O)OS(=O)(=O)O` (centres undefined) had a solubility of 264 mM (≈ 100000 µg/mL). Same read-out and setting: next, `CCCCCOC(=O)c1cccnc1`: 4.19 mM (≈ 810 µg/mL); `CC(C)CC(=O)Oc1ccc([N+](=O)[O-])cc1`: 0.0403 mM (≈ 9 µg/mL).

The compound `N#CSc1ccc(N)cc1` returned a solubility of 2.5 mM (≈ 376 µg/mL). With `O=C(O)[C@@H]1CC[C@H](C(=O)O)SS1`, the solubility is 44.9 mM (≈ 9360 µg/mL). `NC(=O)Nc1ccc(Br)cc1`: the solubility is 23.2 mM (≈ 5000 µg/mL).

The same series, now with this note: 26 °C.
On to `N#CCCNC(Cc1ccccc1)C(=O)O` (racemic), for which the solubility came to 32.1 mM (≈ 7000 µg/mL). The same measure, in the same setting: next, `O=C(S)CCCCCCC(=O)S`: 5.82 mM (≈ 1200 µg/mL); `C=CCc1ccc(O)c(O)c1`: 166 mM (≈ 25000 µg/mL).

The same series, now with this note: 28 °C.
Regarding `NC(=O)NCNC(N)=O`, the solubility was determined as 223 mM (≈ 29400 µg/mL).

The series is the same for the next values; noted with them: 30 °C.
With `O=S(=O)(CCCl)CCS(=O)(=O)CCCl`, the solubility came to 35.6 mM (≈ 10100 µg/mL). Same read-out and setting: with `CCOC(=O)CO[N+](=O)[O-]` the figure was 19.4 mM (≈ 2900 µg/mL); with `CCCCCCCOC(=O)c1ccc(O)cc1`, 0.0846 mM (≈ 20 µg/mL). Same read-out and setting: next, `CCCn1c(=O)c2c(ncn2C)n(C)c1=O`: 61.9 mM (≈ 13800 µg/mL); `CCn1cnc2c1c(=O)n(C)c(=O)n2C`: 176 mM (≈ 36700 µg/mL). `CS(=O)(=O)NS(C)(=O)=O` came in with a solubility of 1100 mM (≈ 190000 µg/mL).
